In experiment [1] the target is T1, human muscle fructose-1,6-bisphosphatase (hmFru-1,6-Pase) (Homo sapiens, UniProt O00757, Q33R).
T1 construct: gene FBP2; model includes residues 11–54 and 72–335
T1 sequence (O00757 2-339 Q33R): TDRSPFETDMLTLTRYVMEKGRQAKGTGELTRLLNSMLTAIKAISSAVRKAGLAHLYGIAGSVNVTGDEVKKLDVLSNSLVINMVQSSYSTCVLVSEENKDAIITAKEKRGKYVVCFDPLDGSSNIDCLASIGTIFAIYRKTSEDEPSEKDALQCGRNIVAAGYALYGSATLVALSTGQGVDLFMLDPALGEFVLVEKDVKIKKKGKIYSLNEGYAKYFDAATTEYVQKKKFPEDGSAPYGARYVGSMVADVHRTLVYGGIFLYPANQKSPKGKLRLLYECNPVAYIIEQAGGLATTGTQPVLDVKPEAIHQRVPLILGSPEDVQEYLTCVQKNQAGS
The experiment in a line: also coupled enzyme inhibition assay (I0.[…]). Format: biochemical.

Experiment [2] concerns the target T2, human muscle fructose-1,6-bisphosphatase (hmFru-1,6-Pase) (Homo sapiens, UniProt O00757).
T2 construct: gene FBP2
T2 sequence (O00757 1-339): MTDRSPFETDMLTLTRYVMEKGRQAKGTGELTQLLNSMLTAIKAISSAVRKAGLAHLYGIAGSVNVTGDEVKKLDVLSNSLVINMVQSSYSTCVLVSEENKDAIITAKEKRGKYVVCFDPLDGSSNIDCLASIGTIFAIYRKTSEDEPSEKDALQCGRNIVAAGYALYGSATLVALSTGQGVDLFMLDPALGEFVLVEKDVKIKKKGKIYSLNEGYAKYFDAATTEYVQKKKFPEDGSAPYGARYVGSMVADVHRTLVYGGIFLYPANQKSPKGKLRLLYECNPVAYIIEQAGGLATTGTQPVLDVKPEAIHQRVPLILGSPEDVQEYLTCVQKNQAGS
The experiment in a line: coupled enzyme assay (G6PDH/phosphoglucose isomerase, NADP, […] nm), AMP titration. It is filed as biochemical. Conditions: read-out: Wild-type Fru-1,6-Pase.

pIC50: −log10 of the molar value.

In the case of `Nc1ncnc2c1ncn2[C@@H]1O[C@H](COP(=O)(O)O)[C@@H](O)[C@H]1O` [AMP], the results for the pIC50 in experiment [1] and in experiment [2] were 5.44 and 6.72, respectively.

The values are drawn from publication PMC3785478, “Crystal Structures of Human Muscle Fructose-1,6-Bisphosphatase: Novel Quaternary States, Enhanced AMP Affinity, and Allosteric Signal Transmission Pathway” (PLoS ONE, 2013).
